In experiment [1] the test system is P388. The experiment in a line: Cytotoxicity against mouse P388 cells after 48 hrs by tetrazolium-formazan method. In kind it is functional, cell-based. Particulars: P388, 48 h.
Experiment [2] deals with A549. Nature of the experiment: Cytotoxicity against human A549 cells after 72 hrs by sulforhodamine B dye assay. Particulars: A549, 72 h. The experiment is classed as functional, cell-based. For orientation: Sulforhodamine B stains cellular protein and so reports cell mass.

Regarding `CN(C)CCN1C(=O)c2cccc3cc4nc(Cl)sc4c(c23)C1=O`, the IC50 in experiment [1] turned out to be 18.5 nM; in experiment [2], 88 nM.

In the case of `CN(C)CCCN1C(=O)c2cccc3cc4nc(N)sc4c(c23)C1=O`, the IC50 in experiment [1] worked out at 294 nM; in experiment [2], 21.8 nM.

For `CN(C)CCCN1C(=O)c2cccc3c2c(cc2nc(N)sc23)C1=O`, the half-inhibitory concentration (IC50) came to 1230 nM in experiment [1] and 772 nM in experiment [2].

As to `CN(C)CCN1C(=O)c2cccc3cc4nc(N)sc4c(c23)C1=O`, the IC50 in experiment [1] was found to be 5 nM; in experiment [2], 0.8 nM.

On to `CN(C)CCN1C(=O)c2cccc3c2c(cc2nc(N)sc23)C1=O`, for which the half-inhibitory concentration (IC50) was 1030 nM in experiment [1] and 500 nM in experiment [2].

For the compound `CN(C)CCN1C(=O)c2cccc3cc4ncsc4c(c23)C1=O`, the figures for the IC50 in experiment [1] and in experiment [2] were 83.9 nM and 39.8 nM, respectively.

For `CN(C)CCN1C(=O)c2cccc3cc4nc(O)sc4c(c23)C1=O`, the IC50 was found to be 52.5 nM in experiment [1] and 45 nM in experiment [2].

As to `CN(C)CCNc1nc2cc3cccc4c3c(c2s1)C(=O)N(CCN(C)C)C4=O`, the IC50 in experiment [1] turned out to be 8.31 nM; in experiment [2], 30.6 nM.

Broadly, the IC50 is the concentration needed to halve the response being measured. Higher therefore signals weaker potency in that assay.

The values are drawn from ChEMBL document CHEMBL1139791, “Highly efficient antitumor agents of heterocycles containing sulfur atom: linear and angular thiazonaphthalimides against human lung cancer cell in vitro” (Bioorg Med Chem, 2007).
